Test results reported in US10301317B2, “Inhibitors of ERK and methods of use” (Kura Oncology, Inc., priority 2013, dated 2019).

Columns and labels:
Assay type in all cases: cell-based
[1] = test system: A375 cells; assay: Tumor cell line proliferation assay (CellTiter Glo), A375; details: Homo sapiens, A-375, 96 h, read-out: A375 (V599E) Cell Proliferation IC50
[2] = test system: phospho-p90 RSK (RSK1 Thr359/Ser363) in A375 (Braf V600E) cells; assay: Phospho-p90 RSK ELISA using A375 (Braf V600E) cells; details: Homo sapiens, A-375, 2 hours compound treatment, read-out: Cellular Phospho-p90RSK IC50
[3] = test system: H358 (Kras, G12C) cells; assay: Tumor cell line proliferation assay (CellTiter Glo), H358; details: Homo sapiens, NCI-H358, 96 hours

Structure (SMILES)	IC50 [1] [nM]	IC50 [2] [nM]	IC50 [3] [nM]
Cc1cc(-c2n[nH]c3cc4c(cc23)CN([C@@H]2CCCN(C(C)c3cccc(Cl)c3)C2)C(=O)N4)ccn1 (some centres unmarked) [Example 180]	250 to 1000	≤ 250	250 to 1000
Cc1cc(-c2n[nH]c3cc4c(cc23)CN(C2CN(Cc3cc(F)cc(F)c3)CC(F)(F)C2)C(=O)N4)ccn1 (centres unmarked) [Example 202]	> 1000	> 1000	> 1000
Cc1cc(-c2n[nH]c3cc4c(cc23)CN(Cc2cscn2)C(=O)N4)ccn1 [Example 47]	> 1000	250 to 1000	> 1000
Cc1cc(-c2n[nH]c3cc4c(cc23)CN(Cc2ccc(F)cc2)C(=O)N4)ccn1 [Example 30]	250 to 1000	≤ 250	250 to 1000
Cc1cc(-c2n[nH]c3cc4c(cc23)CN([C@@H]2CCCN(CC3CCCCC3)C2)C(=O)N4)ccn1 [Example 141]	250 to 1000	≤ 250	250 to 1000
Cc1cc(-c2n[nH]c3cc4c(cc23)CN([C@@H]2CCCN(Cc3cc(C)no3)C2)C(=O)N4)ccn1 [Example 139]	250 to 1000	250 to 1000	250 to 1000
COc1ncc(-c2n[nH]c3cc4c(cc23)CN(Cc2ccc(F)c(Cl)c2)C(=O)N4)cn1 [Example 37]	250 to 1000	≤ 250	250 to 1000
Cc1cc(-c2n[nH]c3cc4c(cc23)CN(C2CCCC2)C(=O)N4)ccn1 [Example 205]	250 to 1000	≤ 250	250 to 1000
Cc1cc(-c2n[nH]c3cc4c(cc23)CN(Cc2ccc(C#N)cc2)C(=O)N4)ccn1 [Example 39]	> 1000	250 to 1000	250 to 1000
COc1ncc(-c2n[nH]c3cc4c(cc23)CN(Cc2ccc(F)cc2F)C(=O)N4)cn1 [Example 99]	250 to 1000	≤ 250	250 to 1000
Cc1cc(-c2n[nH]c3cc4c(cc23)CN([C@@H]2CCCN(CCC(F)(F)F)C2)C(=O)N4)ccn1 [Example 178]	250 to 1000	≤ 250	250 to 1000
Cc1cc(-c2n[nH]c3cc4c(cc23)CN([C@@H]2CCCN(CC3CCCC3)C2)C(=O)N4)ccn1 [Example 138]	250 to 1000	250 to 1000	> 1000
Cc1cc(-c2n[nH]c3cc4c(cc23)CN([C@@H]2CCCNC2)C(=O)N4)ccn1 [Example 32]	> 1000	> 1000	> 1000
Cn1cc(-c2n[nH]c3cc4c(cc23)CN(Cc2ccc(F)c(Cl)c2)C(=O)N4)ccc1=O [Example 41]	250 to 1000	≤ 250	250 to 1000
Cn1cc(-c2n[nH]c3cc4c(cc23)CN(Cc2ccc(F)c(Cl)c2)C(=O)N4)cn1 [Example 31]	250 to 1000	≤ 250	250 to 1000
Cc1cc(-c2n[nH]c3cc4c(cc23)CN([C@@H]2CCN(Cc3c(F)cccc3F)C2)C(=O)N4)ccn1 [Example 147]	250 to 1000	≤ 250	≤ 250
Cc1cc(-c2n[nH]c3cc4c(cc23)CN([C@@H]2CCCN(c3ccc(F)cn3)C2)C(=O)N4)ccn1 [Example 199]	250 to 1000	≤ 250	250 to 1000

Structure (SMILES)	IC50 [1] [nM]	IC50 [2] [nM]	IC50 [3] [nM]
Cc1cc(-c2n[nH]c3cc4c(cc23)CN([C@@H]2CCCN(CCC(C)(C)C)C2)C(=O)N4)ccn1 [Example 136]	250 to 1000	250 to 1000	> 1000
Cc1cc(-c2n[nH]c3cc4c(cc23)CN([C@@H]2CCCN(Cc3cccnc3C(F)(F)F)C2)C(=O)N4)ccn1 [Example 161]	250 to 1000	≤ 250	250 to 1000
Cc1cc(-c2n[nH]c3cc4c(cc23)CN([C@@H]2CCCOC2)C(=O)N4)ccn1 [Example 49]	> 1000	250 to 1000	> 1000
Cc1cc(-c2n[nH]c3cc4c(cc23)CN(C2CN(CC3CCCC3)CC(F)(F)C2)C(=O)N4)ccn1 (centres unmarked) [Example 201]	> 1000	> 1000	> 1000
Cc1cc(-c2n[nH]c3cc4c(cc23)CN(C2CCNCC2)C(=O)N4)ccn1 [Example 34]	> 1000	> 1000	> 1000
Cc1cc(-c2n[nH]c3cc4c(cc23)CN([C@@H]2CCCN(CC(F)(F)F)C2)C(=O)N4)ccn1 [Example 193]	250 to 1000	≤ 250	250 to 1000
O=C1Nc2cc3[nH]nc(-c4ccnnc4)c3cc2CN1[C@@H]1CCCN(Cc2ccccc2)C1 [Example 120]	250 to 1000	≤ 250	250 to 1000
Cc1cc(-c2n[nH]c3cc4c(cc23)CN(C2CCCCC2)C(=O)N4)ccn1 [Example 204]	250 to 1000	250 to 1000	> 1000
Cc1cc(-c2n[nH]c3cc4c(cc23)CN(C2CN(Cc3ccccc3)CC(F)(F)C2)C(=O)N4)ccn1 (centres unmarked) [Example 200]	250 to 1000	≤ 250	250 to 1000
Cc1cc(-c2n[nH]c3cc4c(cc23)CN([C@@H]2CCCN(C)C2)C(=O)N4)ccn1 [Example 33]	> 1000	> 1000	> 1000
Cc1cc(-c2n[nH]c3cc4c(cc23)CN([C@H](C)c2cccc(Cl)c2)C(=O)N4)ccn1 [Example 35]	250 to 1000	≤ 250	≤ 250
Cc1cc(-c2n[nH]c3cc4c(cc23)CN([C@@H]2CCCN(Cc3csc(C)n3)C2)C(=O)N4)ccn1 [Example 140]	250 to 1000	≤ 250	250 to 1000
Cc1cc(-c2n[nH]c3cc4c(cc23)CN([C@@H]2CN(CC(F)(F)F)C[C@H]2c2cccs2)C(=O)N4)ccn1 (mixture of isomers) [Example 321]	250 to 1000	≤ 250	
CC(c1ccccc1)c1cc2cc3c(-c4cccnc4)n[nH]c3cc2[nH]c1=O (centres unmarked) [Example 330]	250 to 1000	≤ 250	
Cc1ccc(-c2n[nH]c3cc4c(cc23)CN([C@@H]2CCCN(Cc3ccc(F)cc3F)C2)C(=O)N4)cn1 [Example 284]	≤ 250	≤ 250	
Cc1cc(-c2n[nH]c3cc4c(cc23)CN(C2CCC(F)(F)CC2)C(=O)N4)ccn1 [Example 224]	250 to 1000	≤ 250	

Continued, values first:

IC50 [1] [nM]	IC50 [2] [nM]	IC50 [3] [nM]	Structure (SMILES)
≤ 250	≤ 250	≤ 250	Cc1cc(-c2n[nH]c3cc4c(cc23)CN([C@@H]2CCN(CC(F)(F)F)C2)C(=O)N4)ccn1 [Example 214]
≤ 250	≤ 250	≤ 250	COc1ncc(-c2n[nH]c3cc4c(cc23)CN([C@@H]2CCCN(Cc3c(F)cccc3OC)C2)C(=O)N4)cn1 [Example 103]
≤ 250	≤ 250	≤ 250	COc1ncc(-c2n[nH]c3cc4c(cc23)CN([C@@H]2CCCN(Cc3c(F)cccc3F)C2)C(=O)N4)cn1 [Example 102]
≤ 250	≤ 250	250 to 1000	Cc1cc(-c2n[nH]c3cc4c(cc23)CN(Cc2cccc(Cl)c2)C(=O)N4)cc(C)n1 [Example 77]
≤ 250	≤ 250	≤ 250	Cc1cc(-c2n[nH]c3cc4c(cc23)CN([C@@H]2CCN(Cc3ccccc3)C2)C(=O)N4)ccn1 [Example 146]
≤ 250	≤ 250	≤ 250	CCC(c1ccccc1)c1cc2cc3c(-c4ccnc(C)c4)n[nH]c3cc2[nH]c1=O (centres unmarked) [Example 64]
≤ 250	≤ 250	250 to 1000	Cc1cc(-c2n[nH]c3cc4c(cc23)CN([C@@H]2CCCN(Cc3ccc(F)c(F)c3)C2)C(=O)N4)ccn1 [Example 190]
≤ 250	≤ 250	≤ 250	Cc1cc(-c2n[nH]c3cc4c(cc23)CN([C@@H]2CCCN(Cc3c(F)cccc3F)C2)C(=O)N4)ccn1 [Example 143]
≤ 250	≤ 250	≤ 250	COc1cccc(F)c1CN1CCC[C@@H](N2Cc3cc4c(-c5ccnc(C)c5)n[nH]c4cc3NC2=O)C1 [Example 144]
≤ 250	≤ 250	≤ 250	COc1ncc(-c2n[nH]c3cc4c(cc23)CN([C@@H]2CCCN(Cc3ccccc3F)C2)C(=O)N4)cn1 [Example 101]
≤ 250	≤ 250	250 to 1000	COc1ncc(-c2n[nH]c3cc4c(cc23)CN(Cc2cccc(Cl)c2)C(=O)N4)cn1 [Example 68]
≤ 250	≤ 250	≤ 250	[2H]c1c([2H])c([2H])c(C([2H])([2H])N2CCC[C@@H](N3Cc4cc5c(-c6ccnc(C)c6)n[nH]c5cc4NC3=O)C2)c([2H])c1[2H] [Example 165]
≤ 250	≤ 250	≤ 250	Cc1cc(-c2n[nH]c3cc4c(cc23)CN([C@@H]2CCCN(Cc3ccccc3)C2)C(=O)N4)ccn1 [Example 63]
≤ 250	≤ 250	≤ 250	Cc1cc(-c2n[nH]c3cc4c(cc23)CN([C@@H]2CCCN(Cc3ccc(F)cc3F)C2)C(=O)N4)ccn1 [Example 196]
≤ 250	≤ 250		Cc1cc(-c2n[nH]c3cc4c(cc23)CN([C@@H]2CCN(CC(F)(F)F)C2)C(=O)N4)cc(C)n1 [Example 237]
≤ 250	≤ 250		Cc1cc(-c2n[nH]c3cc4c(cc23)CN(Cc2cc(F)cc(F)c2)C(=O)N4)cc(C)n1 [Example 225]
≤ 250	≤ 250		Cc1ncc(-c2n[nH]c3cc4c(cc23)CN([C@@H]2CCCN(Cc3ccc(F)cc3F)C2)C(=O)N4)cn1 [Example 293]
≤ 250	≤ 250		Cc1cc(-c2n[nH]c3cc4c(cc23)CN([C@@H]2CCCN(Cc3cccs3)C2)C(=O)N4)ccn1 [Example 254]
≤ 250	≤ 250		CC(c1ccccc1)c1cc2cc3c(-c4cnn(C)c4)n[nH]c3cc2[nH]c1=O (centres unmarked) [Example 333]
≤ 250	≤ 250		Cc1cc(-c2n[nH]c3cc4c(cc23)CN(CC2CCCC2)C(=O)N4)ccn1 [Example 212]
